Reference: patent US5910435A, “Method of folding proteins with synthetic dithiol catalysts” (Wisconsin Alumni Research Foundation, priority 1996, dated 1999)

What was measured:
[1] = cited from earlier work
[2] = test system: pdilΔ Saccharomyces cerevisiae; test: Rescue of PDI-deficient yeast on 5-FOA plates; type: cell-based; conditions: for survival of colonies of PDI-deficient yeast after selection against the PDI plasmid: minimal medium plates containing 5-FOA, BMC at 10 mM, DTT by the same procedure
Description: The ability of a synthetic diol protein catalyst to catalyze protein folding in vivo was tested by its ability to replace the function of PDI in a eukaryotic cell. The cells used for this procedure were pdilΔ Saccharomyces cerevisiae, which have a deletion in their PDI1 gene rendering the expressed enzyme dysfunctional. The PDI1 gene is an essential gene for survival of S. cerevisiae. To enable these cells to live, the cells contain a plasmid that directs expression of S. cerevisiae PDI. This plasmid also directs the expression of the […] gene product. These cells were streaked onto plates of minimal medium containing 5-fluoroorotic acid (5-FOA) which makes the URA3 gene product toxic to S. cerevisiae. Accordingly, this selects against presence of the plasmid and surviving cells will have neither the plasmid nor PDI.
This test was run with plates containing 5-FOA which also contained 0 or 10 mM BMC. […] No colonies survived on the plate without BMC.
Cells from the colonies rescued with BMC were then plated onto rich medium without BMC.
This same procedure was repeated with the disulfide bond reducing agent dithiothrietol (DTT). DTT is a low molecular weight dithiol with a higher pKa and a lower E°' than BMC.

scrambled ribonuclease A = test: In vitro unscrambling of non-native disulfide bonds (regain of ribonucleolytic activity); type: biochemical; conditions: 0, 20 or 200 μM; 1 mM reduced and 0.2 mM oxidized glutathione, pH 7.6, 30° C.; FIG. 5
Description: Disulfide bonds form readily in an oxidizing environment. These disulfide bonds may not, however, be the ones that exist in the native, active conformation of a protein. The desirable property in a synthetic protein foldase is the ability to catalyze the unscrambling of non-native disulfide bonds. The ability of BMC to catalyze the unscrambling of non-native disulfide bonds in vitro was assayed by a method similar to that reported previously by our group and others. Laboissiere et al, Protein Express. Purif. 6:700-706 (1995).
This assay is based on the disulfide bonds in ribonuclease A, a well-characterized enzyme. In its native, enzymatically active conformation, ribonuclease A has eight cysteine residues which participate in four specific disulfide bonds. […]
In the assay, BMC was tested for its ability to catalyze the regain of enzymatic activity in scrambled ribonuclease A. This regain in activity can only occur by the isomerization (or unscrambling) of the non-native disulfide bonds. […] In this test, the aliquot was added to 500 μL of 100 mM MES-HCl buffer, pH 6.0, containing 100 mM NaCl and 10 mM poly(C) RNA, which is a substrate for ribonuclease A. Ribonucleolytic activity was monitored by following the change in absorbance at 238 nm which accompanies the cleavage of poly(C) by enzymatically active ribonuclease A.

PDI deficient yeast = test: Complementation of PDI-deficient yeast with thioredoxin and its active-site mutants; type: cell-based
Source text: Because the proper folding of proteins is of significant scientific and commercial interest, systems have been designed to help to study protein folding. One such system is based on a yeast cells which lack a nuclear gene for the PDI enzyme, and are therefore incapable of catalyzing the formation of the proper disulfide bonds required for biological activity of proteins. Such yeast cells can be grown so long as they harbor a plasmid that produces PDI, but the cells promptly expire when the plasmid PDI is removed. The ability of mutant, altered, or engineered forms of PDI to rescue the PDI-deficient yeast cultures from death is a test of the suitability of such altered isoforms to properly fold proteins. Investigation into the function of PDI, and its use in the unscrambling of non-native disulfide bonds, is described by Laboissiere et al., J. Biol. Chem. 270:47:28006-28009 (1995). Based on this test system, it has been possible to determine that the motif for PDI activity consists of a particular amino acid domain. This domain is shared in common with the reducing bacterial enzyme thioredoxin. The domain has the consensus sequence Cys-X-X-Cys (SEQ ID NO: 1 or C-X-X-C, where X is an amino acid, Edman, Nature 317:267-270 (1985).
That study was conducted using mutant PDI deficient yeast. […]

## O[C@@H](CS)[C@@H](O)CS (relative stereo) [DTT, dithiothrietol, reference compound]
[1]
  pKa relative to BMC: higher
[2]
  survival of colonies of PDI-deficient yeast after selection against the PDI plasmid: no yeast colonies could be rescued

## O=C(CS)NC1CCCCC1NC(=O)CS (stereo not shown) [BMC, N,N'-bis(2-mercaptoacetyl)-1,2-diaminocyclohexane]
Scrambled ribonuclease A
  catalysis of the regain of biological activity of a protein with scrambled disulfide bonds: significant catalysis
  total yield of active protein, in the presence versus in the absence of the catalyst: significantly greater
[2]; 5-FOA plate with 10 mM BMC
  time until surviving colonies appeared: 5 days
[2]
  survival of colonies of PDI-deficient yeast after selection against the PDI plasmid: Surviving colonies appeared

## thioredoxin: 12 kilodalton protein from E. coli, prokaryotic functional homolog of PDI, active site Cys-Gly-Pro-Cys
PDI deficient yeast
  complementation (rescue) of PDI deficient yeast: failed
